Experiment [1] concerns human fibroblasts. The experiment is described as follows: Anti-stress effect on UV-A-damaged fibroblasts. The experiment is classed as cell-based. The settings on record: + UV-A 20 J/cm^2; for Cell proteins: blank sample = 100; for GSH/proteins: blank sample = 100, blank + UV-A = 65. The procedure: UV-A radiation in the 320 to 400 nm range induces oxidative stress which is mainly produced by the activation of photosensitive biological components which in turn catalyze the formation of ROS-like superoxide anions, hydrogen peroxide and singlet oxygen atoms. The anti-UV-A effect was tested on fibroblasts because UV-A radiation penetrates through the dermis where it causes oxidative damage by lipoperoxidation of the cell membrane and a reduction in the content of reduced glutathione (GHS). To this end, human fibroblasts were cultivated as described in a), exposed to UV-A rays (20 J/cm^2) and the cell counts and the GSH content subsequently determined. The results are set out in Table 3, where they are expressed in %-rel. against a blank sample, and represent the results of 3 series of measurements with triple determination.

Experiment [2] has as its system bacterial collagenase (clostridium histolyticum). Put plainly: Collagenase inhibition on FITC-marked gelatin. The settings on record: 60 mins. at 20° C. The class given is biochemical. The procedure:
In the event of inflammation, skin proteases, for example collagenase, are released from the polymorphonuclear neutrophilic granulocytes or macrophages. A similar process takes place in the skin of elderly people on exposure to UV rays. As already mentioned, the proteases—also known as matrix metalloproteases (MMPs) through their content of central zinc ions—catalyze the fragmentation of connective tissue proteins. The test substances were tested for collagenase inhibition using bacterial collagenase (clostridium histolyticum) on gelatin marked with fluorochromium (FITC, Calbiochem) as a natural nutrient medium. The incubation time was 60 mins. at 20° C.; the hydrolysis of the substrate was monitored by fluorescence at 393 nm (excitation at 328 nm). The results are set out in Table 6 as the collagenase inhibition in %.

Experiment [3] deals with melanocytes (B16 cell line). Put plainly: Inhibition of melanin synthesis in B16 melanocytes. The experiment is classed as cell-based. The settings on record: 3 days, blank value = 100. On the procedure: Melanin is the pigment responsible for the color of the skin and hair. It is formed in special organelles, the melanosomes, which occur in the melanocytes of the basal layer of the human epidermis. The biosynthesis of melanin begins with the amino acid tyrosine which is oxidized to DOPA (dihydroxyphenylalanine) in the presence of tyrosinase. The DOPA then polymerizes to melanin. […] After incubation for 3 days at 37° C./5% CO2, the nutrient medium was replaced by a solution containing the test substances in various concentrations. After incubation for another 3 days, the cell protein content (Bradford's method) and the content of synthesized melanin were determined through the optical density of the homogenizate at 475 nm. The results are expressed in % against a blank value and are set out in Table 7.

Experiment [4] has as its system Propionibacterium acnes. Put plainly: Agar diffusion method, inhibition zones. The class given is cell-based. The settings on record: filter paper with 20 μl test substance; 18 to 24 h at 37° C., anaerobic. The procedure: (§1) The antibacterial activity of the test substances was tested by the diffusion method on agar plates or the agar dilution method. In this method, a round filter paper of defined diameter is first impregnated with the test solution and then applied to the surface of an agar plate inoculated beforehand with the test microorganisms. The size of the inhibition zones is then determined after defined times. In particular, it is possible by this method to determine the MIC (Minimum Inhibitory Concentration) as the lowest concentration of test substance with which complete inhibition of the microorganisms can be obtained.
(§2) Agar diffusion method. The inoculum was prepared using a fresh culture in a stationary growth phase (after ca. 18-24 h) in a BHI solution (brain-heart Infusion). The bacterial suspension was adjusted to 0.5 MacFarland units, corresponding to 1.5 10^8 colony-forming units (cfu)/ml; the suspension was then diluted with a sodium chloride solution (1:100) to adjust a value of 1.5 10^6 cfu/ml. Mueller-Hinton agar (Staphylococcus epidermidis, Staphylococcus aureus) and Wilkins-Chalgrens agar containing 5% by weight sheep's blood (Propionibacterium acnes) were then sterilized for 15 mins. at 121° C. and then placed in Petri dishes. 2 to 4 ml of the bacterial suspension were then added to the Petri dishes, followed by drying at room temperature. The filter papers were impregnated with 20 μl of the test substances and applied to the surface of the agar plates. The inoculated Petri dishes were incubated for 18 to 24 h at 37° C. (the Petri dishes containing Propionibacterium acnes under anaerobic conditions) and the antimicrobial activity was then determined by determination of the growth inhibition zones. The results are set out in Table 10 and represent the diameters of the inhibition zones in mm.
For orientation: Agar diffusion results depend on both activity and mobility in agar.

Experiment [5] has as its system Staphylococcus aureus. The experiment is described as follows: Agar diffusion method, inhibition zones. The experiment is classed as cell-based. The settings on record: filter paper with 20 μl test substance; 18 to 24 h at 37° C. On the procedure: as §1, §2
For experiment [6], the system named is Staphylococcus epidermidis. Put plainly: Agar diffusion method, inhibition zones. The class given is cell-based. The settings on record: filter paper with 20 μl test substance; 18 to 24 h at 37° C. The procedure: as §1, §2
The subject of experiment [7] is human leukaemic granulocytes. Put plainly: Anti-inflammatory activity: respiratory burst of granulocytes (zymosan, luminol). The class given is cell-based. The settings on record: + stimulation (zymosan), blank + stimulation = 100. From the text: In the course of cutaneous inflammation, leucocytes, such as the polymorphonuclear neutrophilic granulocytes (PMNs) for example, are stimulated by peptides, such as cytokines for example, to emit messenger substances, such as leucotriene for example, which are released from activated or necrotic cells in the dermis. These activated PMNs release not only pro-inflammatory cytokinins, leucotrienes and proteases, but also ROS, such as superoxides and hypochlorite anions for example, of which the function is to destroy penetrated pathogenic germs or fungi. This activity of the PMNs during the inflammation is known as so-called respiratory burst. To investigate to what extent the test extracts can prevent or reduce the respiratory burst, a cell line of human leukaemic granulocytes of these PMNs was incubated together with the test substances at 37° C. and 5% by vol. CO2. After the respiratory burst had been initiated by addition of a yeast extract (zymosan) to the cell solution, the release of superoxide anions was determined through their reaction with luminol.

Experiment [8] relates to human keratinocytes. Put plainly: Protecting cells against UVB radiation (cell DNA, LDH and PGE2 release). The class given is cell-based. The settings on record: + UV-B 50 mJ/cm^2; for Cell DNA: blank = 100, control + UV-B = 33; for LDH released / PGE2 released: control + UV-B = 100. The procedure: UVB was selected as the stress factor because the rays produce cutaneous inflammation (erythemas, oedemas) by activating enzymes that release arachidonic acid, such as phospholipase A2 (PLA2) for example. […] The influence of UVB rays on keratinocytes was determined in vitro through the release of cytoplasmatic enzymes, such as LDH (lactate dehydrogenase) for example, which runs parallel to the cell damage and the formation of PGE2. […] The quantity of keratinocytes was determined after trypsination via a cell counter while the LDH concentration was enzymatically determined. The results are set out in Table 4, where they are expressed as the activity in %-rel. against a standard, and represent the mean value of two test series involving double determination.

As for Trehalose caprate, in experiment [1] (conc. 0.00003 % w/v), the Cell proteins was 120 %-rel and the GSH/proteins is 87 %-rel. Moreover, the Collagenase inhibition in experiment [2] (Conc. [w/v] 0.3) is reported as 52 %-rel. Further, in experiment [3] (conc. 0.001 % w/v), the Cell melanin turned out to be 53 %-rel and the Cell proteins amounted to 100 %-rel. Moreover, in experiment [3] (conc. 0.003 % w/v), the Cell melanin was 23 %-rel and the Cell proteins was determined as 75 %-rel. In addition, the “Inhibition zones, Propionibacterium acnes” value in experiment [4] is on record as 10 mm. Moreover, in experiment [5], the “Inhibition zones, Staphylococcus aureus” value amounted to 10 mm. In addition, the “Inhibition zones, Staphylococcus epidermidis” value in experiment [6] amounted to 0 mm.
Take Fructose stearate: the values for the Cell proteins in experiment [1] (conc. 0.003 % w/v), in experiment [3] (conc. 0.006 % w/v) and in experiment [3] (conc. 0.01 % w/v) were 83 %-rel, 105 %-rel and 76 %-rel, respectively. For the same substance, the GSH/proteins in experiment [1] (conc. 0.003 % w/v) is on record as 79 %-rel. The Cell counts in experiment [7] (conc. 0.001 % w/v) is 100 %-rel; in experiment [7] (conc. 0.01 % w/v), 155 %-rel. Moreover, the ROS released is 88 %-rel in experiment [7] (conc. 0.001 % w/v) and 26 %-rel in experiment [7] (conc. 0.01 % w/v). Besides, the Collagenase inhibition in experiment [2] (Conc. [w/v] 0.3) came out at 45 %-rel. The Cell melanin in experiment [3] (conc. 0.006 % w/v) came out at 49 %-rel; in experiment [3] (conc. 0.01 % w/v), 21 %-rel.
For Glucose caprylate, the “Inhibition zones, Propionibacterium acnes” value in experiment [4] is reported as 12 mm. For the same substance, the “Inhibition zones, Staphylococcus aureus” value in experiment [5] was determined as 11 mm. The “Inhibition zones, Staphylococcus epidermidis” value in experiment [6] turned out to be 0 mm.
With Trehalose laurate, in experiment [1] (conc. 0.003 % w/v), the Cell proteins was 119 %-rel and the GSH/proteins is 90 %-rel. This substance had a Collagenase inhibition in experiment [2] (Conc. [w/v] 0.1) of 21 %-rel.
In experiment [3] (conc. 0.001 % w/v), Sucrose stearate showed a Cell melanin of 75 %-rel and a Cell proteins of 89 %-rel. Further, in experiment [3] (conc. 0.003 % w/v), the Cell melanin is reported as 18 %-rel and the Cell proteins stood at 70 %-rel.
With Fructose monostearate, in experiment [3] (conc. 0.001 % w/v), the Cell melanin was 85 %-rel and the Cell proteins was found to be 104 %-rel. For the same substance, in experiment [3] (conc. 0.003 % w/v), the Cell melanin is recorded as 34 %-rel and the Cell proteins is listed as 91 %-rel.
For Fructose dicaprate, in experiment [3] (conc. 0.003 % w/v), the Cell melanin is recorded as 88 %-rel and the Cell proteins is on record as 105 %-rel. In experiment [3] (conc. 0.01 % w/v), this substance came in with a Cell melanin of 41 %-rel and a Cell proteins of 91 %-rel.
For the substance Glucose palmitate, in experiment [1] (conc. 0.003 % w/v), the Cell proteins was 119 %-rel and the GSH/proteins amounted to 114 %-rel. In experiment [8] (conc. 0.001 % w/v), the “Cell DNA” value is given as 32 %-rel, the LDH released is 68 %-rel and the PGE2 released stood at 63 %-rel. In addition, in experiment [8] (conc. 0.003 % w/v), the “Cell DNA” value came out at 32 %-rel, the LDH released was determined as 68 %-rel and the PGE2 released is 65 %-rel. Moreover, in experiment [7] (conc. 0.001 % w/v), the Cell counts amounted to 102 %-rel and the ROS released was 99 %-rel. In addition, in experiment [7] (conc. 0.01 % w/v), the Cell counts was determined as 91 %-rel and the ROS released is 58 %-rel.
As for Glucose caprate, in experiment [1] (conc. 0.003 % w/v), the Cell proteins is 109 %-rel and the GSH/proteins amounted to 144 %-rel. In addition, in experiment [8] (conc. 0.003 % w/v), the “Cell DNA” value is listed as 28 %-rel, the LDH released is given as 72 %-rel and the PGE2 released turned out to be 50 %-rel. In addition, in experiment [8] (conc. 0.01 % w/v), the “Cell DNA” value came out at 36 %-rel, the LDH released worked out at 48 %-rel and the PGE2 released came out at 28 %-rel.
For the substance Glucose laurate, in experiment [1] (conc. 0.0001 % w/v), the Cell proteins was found to be 95 %-rel and the GSH/proteins turned out to be 91 %-rel. In experiment [8] (conc. 0.001 % w/v), the “Cell DNA” value is listed as 17 %-rel, the LDH released came to 105 %-rel and the PGE2 released turned out to be 107 %-rel. Also, in experiment [8] (conc. 0.003 % w/v), the “Cell DNA” value was 54 %-rel, the LDH released amounted to 49 %-rel and the PGE2 released is recorded as 23 %-rel. For the same substance, the Collagenase inhibition in experiment [2] (Conc. [w/v] 0.1) was found to be 28 %-rel. Further, the “Inhibition zones, Propionibacterium acnes” value in experiment [4] worked out at 10 mm. Also, the “Inhibition zones, Staphylococcus aureus” value in experiment [5] stood at 14 mm. In addition, in experiment [6], the “Inhibition zones, Staphylococcus epidermidis” value was determined as 16 mm.

The values are drawn from patent publication US20050220726A1, “Use of sugar esters in cosmetic and/or pharmaceutical preparations” (priority 2003, published 2005).
